Laboratory results as given in PMC10947176, “The Antimicrobial Properties of Pd^II− and Ru^II−pyta Complexes” (Chembiochem, 2023).
Read-outs that look alike come from different tables or passages of the source.

Assays:
Test in all cases: MIC against extended fungal panel
[1] = test system: C. albicans ATCC 90028; assay type: cell-based, Candida albicans; details: for MIC: Candida albicans, ATCC90028
Experimental: (§1) The extended panel contained four Candida and two Cryptococcus strains (Table 1).
(§2) Antifungal data collection: Fungi strains were cultured for 3 days on yeast extract‐peptone dextrose (YPD) agar at 30 °C. A yeast suspension of 1×10^6 to 5×10^6 CFU mL^−1 (as determined by OD530) was prepared from five colonies. The suspension was diluted in supplemented YNB and added to each well of the compound‐containing plates giving a final cell density of fungi suspension of 2.5×10^3 CFU mL^−1 and 2 % DMSO. All plates were covered and incubated at 35 °C for 36 h without shaking.
(§3) Two biological replicates x2 technical replicates were conducted on separate days (final n=4).
(§4) Growth inhibition of C. albicans, C. tropicalis and C. glabrata was determined by measuring absorbance at 630 nm (OD630), while the growth inhibition of Cryptococcus spp. and C. auris was determined by measuring the difference in absorbance between 600 and 570 nm (OD600‐570), after the addition of resazurin (0.01 % final concentration) and incubation at 35 °C for 2 h. The absorbance was measured using a Biotek Multiflo Synergy HTX plate reader.
(§5) The percentage of growth inhibition was calculated for each well, using the negative control (media only) and positive control (fungi without inhibitors) on the same plate. […] In addition, the maximal percentage of growth inhibition is reported as D Max, indicating any compounds with marginal activity.

[2] = test system: C. neoformans ATCC 208821; assay type: cell-based, Cryptococcus neoformans
Experimental: as §1, §2, §3, §4, §5

[3] = test system: Candida tropicalis ATCC 750; assay type: cell-based
Experimental: as §1, §2, §3, §4, §5

[4] = test system: C. glabrata ATCC 90030; assay type: cell-based, Candida glabrata
Experimental: as §1, §2, §3, §4, §5

[5] = test system: C. deuterogattii ATCC 32609; assay type: cell-based, Cryptococcus deuterogattii
Experimental: as §1, §2, §3, §4, §5

[6] = test system: C. auris CBS10913; assay type: cell-based, Candida auris
Experimental: as §1, §2, §3, §4, §5

In the case of `OC(Cn1cncn1)(Cn1cncn1)c1ccc(F)cc1F` [fluconazole], the MIC ([1]; Table S3, Table 1 values in µM, read-out: MIC, Candida albicans ATCC 90028) is reported as 0.816 to 1.63 µM, the MIC ([1]; range of MICs, n=4, read-out: MIC, C. albicans ATCC 90028) is reported as 0.25 to 0.5 µg/mL and the “MIC, Candida albicans ATCC 90028” value ([1]; second Table S4, free ligands) is reported as 0.816 to 1.63 µM. The MIC ([2]; Cryptococcus neoformans, ATCC208821, Table S3, Table 1 values in µM, read-out: MIC, Cryptococcus neoformans ATCC 208821) was 26.1 µM, the MIC ([2]; Cryptococcus neoformans, ATCC208821, range of MICs, n=4, read-out: MIC, C. neoformans ATCC 208821) was 8 µg/mL and the MIC ([2]; second Table S4, free ligands, read-out: MIC, Cryptococcus neoformans ATCC 208821) was 26.1 µM. For the same compound, the MIC ([3]; Candida tropicalis, ATCC750, Table S3, Table 1 values in µM) was 13.1 µM, the MIC ([3]; Candida tropicalis, ATCC750, range of MICs, n=4) was 4 µg/mL and the MIC ([3]; second Table S4, free ligands) was 13.1 µM. For the same compound, the MIC ([4]; Nakaseomyces glabratus, ATCC90030, Table S3, Table 1 values in µM, read-out: MIC, Candida glabrata ATCC 90030) was > 104 µM, the MIC ([4]; Nakaseomyces glabratus, ATCC90030, range of MICs, n=4, read-out: MIC, C. glabrata ATCC 90030) was > 32 µg/mL and the MIC ([4]; second Table S4, free ligands, read-out: MIC, Candida glabrata ATCC 90030) was > 104 µM. For the same compound, the MIC ([5]; Cryptococcus deuterogattii, ATCC32609, Table S3, Table 1 values in µM, read-out: MIC, Cryptococcus deuterogattii ATCC 32609) was > 104 µM, the MIC ([5]; Cryptococcus deuterogattii, ATCC32609, range of MICs, n=4, read-out: MIC, C. deuterogattii ATCC 32609) was > 32 µg/mL and the MIC ([5]; second Table S4, free ligands, read-out: MIC, Cryptococcus deuterogattii ATCC 32609) was > 104 µM. The MIC ([6]; Candidozyma auris, CBS10913, Table S3, Table 1 values in µM, read-out: MIC, Candida auris CBS10913) was > 104 µM, the MIC ([6]; Candidozyma auris, CBS10913, range of MICs, n=4, read-out: MIC, C. auris CBS10913) was ≥ 32 µg/mL and the MIC ([6]; second Table S4, free ligands, read-out: MIC, Candida auris CBS10913) was > 104 µM.
